Holding throughout (type): binding, mouse
In assay [1] the target is MAb 3A2. Description: Kinetic exclusion fluoroimmunoassay (KinExA), equilibrium dissociation constant. Particulars: hapten conjugate 16-BSA, racemic hapten conjugate. The method, then: (§1) 1. Binding Kinetics. The equilibrium dissociation constants (KD) for MAbs 3A2 and 3A5 were measured by kinetic exclusion fluoroimmunoassay (KinExA) (Blake, D. A., et al. 1997. Characterization of a metal-specific monoclonal antibody. In: Immunochemical Technology for Environmental Applications (ACS Symposium Series 657), eds. DS Aga, EM Thurmann, pp. 49-60. Washington, D.C.: American Chemical Society.), and also in a Pharmacia BIAcore surface plasmon resonance instrument (Malmborg, A.-C. and Borrebaeck, C. A. K. 1995. BIAcore as a tool in antibody engineering. J. Immunol. Methods 183: 7-13.). Since the hapten conjugates used in these rate studies were racemic mixtures, the dissociation constants obtained can only be a median rate for the different chiral isomers.
(§2) The KinExA directly measures free antibody in solution equilibrium by trapping it on beads coated with hapten conjugate. […] 2. […] 4.
For orientation: Kinetic exclusion samples the free partner from a solution-phase mixture.

In assay [2] the target is MAb 3A5 (VH and VL N-termini SEQ.ID NOS. 1 and 2). Described as above. Particulars: hapten conjugate 16-BSA, racemic hapten conjugate. Here is the method: as §1, §2
The subject of assay [3] is panel of monoclonal antibodies (MAbs). Kind of assay: Detection of imidazolinones by the panel of MAbs (EIA). The method, then: EIAs were done essentially as described by Karu et al (1994). For indirect EIAs, hapten-protein conjugates were adsorbed to wells of Immulon 2™ 96-well plates (Dynatech) in 0.1 mL of coating buffer (0.015 M Na2CO3 ― 0.035 M NaHCO3 ―0.003 M NaN3, pH 9.6). PBS-Tween containing 0.05% gelatin, 0.45 micron-filtered, was used as the diluent for antibodies and antibody-analyte mixtures, and as a blocking solution to prevent adventitious binding. The detecting antibody for the indirect EIAs was alkaline phosphatase conjugated goat anti-mouse IgG and IgM The substrate solution for color development was p-nitrophenyl phosphate 1 mg/mL, in 10% (w/v) diethanolamine-HCl, pH 9.8 ― 0.5 mM MgCl2 ― 3 mM NaN3. • 1. Indirect competition EIA. Indirect competition EIA (immobilized hapten conjugate) was used to evaluate the responses of mice, screen the MAbs, and quantify imidazolinone analytes. Optimal amounts of imidazolinone-BSA or -OVA conjugate for plate coating and dilutions for the hybridoma culture supernate or antiserum were determined by checkerboard assay. To perform the assay, wells were coated overnight at 4°C with a limiting amount of conjugate in 0.1 mL of coating buffer. Imidazolinone standards (0.5 to 5000 ppb) or unknowns were mixed with a limiting amount of antiserum or hybridoma culture fluid in the diluent and incubated overnight at 4°C in tightly sealed polypropylene tubes. The coated wells were washed and blocked with 0.2 mL of 0.05% gelatin in PBS-Tween for 30 minutes at room temperature. After another wash, aliquots (0.1 mL) of the antibody-analyte mixture were added to wells, and the remainder of the assay was performed as previously described (Karu et al., 1994). • 2. Direct competition EIA. Direct EIAs were performed by capturing the MAb on microwells and allowing the analyte to compete with a HRP-conjugated hapten for binding. Bound HRP-conjugate was then detected with a commercial HRP substrate. The sensitivity of this assay was enhanced by use of a commercial enzymatic signal amplification kit (GIBCO-BRL). Wells were coated with 200 or 500 ng of affinity-purified goat anti-mouse IgG or anti-mouse IgG Fc in the coating buffer at 4°C overnight. The next day, the wells were washed and blocked with PBS-Tween-gelatin for 30 minutes at room temperature, and then incubated for 1.5 hours at room temperature with hybridoma culture supernate. The plates were washed with PBS-Tween, and 0.1 mL of diluent containing the analyte and a limiting amount of biotinylated imidazolinone was added for 1.5 h at room temperature. The wells were washed three times with PBS-Tween, and Extravidin-alkaline phosphatase conjugate (Sigma) was then added for 30 minutes at room temperature. The plates were washed again with TBS (0.05 M Tris-HCl, pH 7.5,― 0.15 M NaCl) to remove remaining inorganic phosphate, which can inhibit the GIBCO-BRL EIA Amplification system. Substrate solution for the amplification step (0.05 mL) was added for 15 minutes at room temperature, followed by 0.05 mL of the enzymatic amplifying solution and chromogen. Color development at 492 nm was recorded. • 3. EIA Data Analysis. Color development was monitored on a Multiskan EIA reader (Flow Laboratories) interfaced with a Macintosh computer, and the rates of the reaction were calculated by linear regression. Competition EIA dose- response curves were fitted with a 4-parameter logistic equation (Karu et al., 1994).

In assay [4] the target is MAb 3A2. Description: BIAcore surface plasmon resonance, equilibrium dissociation constant. The conditions noted are these: racemic hapten conjugate. Here is the method: as §1, §2
Assay [5] addresses MAb 3A5 (VH and VL N-termini SEQ.ID NOS. 1 and 2). The description is as above. The conditions noted are these: racemic hapten conjugate. The method, then:
as §1, §2

One may read the Kd as the equilibrium constant for the complex coming apart. A high value points to a looser complex.

In the case of `CCc1cnc(C2=NC(C)(C(C)C)C(=O)N2)c(C(=O)O)c1` (stereo not shown) [imazethapyr, 5-ethyl-2-(4-isopropyl-4-methyl-5-oxo-2-imidazolin-2-yl) nicotinic acid], the Kd in assay [1] is 11.4 nM; in assay [2], 73 nM; in assay [4] (hapten conjugate 16-OA), 24.7 nM; in assay [4] (hapten conjugate 17-OA) it was 51.6 nM; in assay [5] (hapten conjugate 16-OA), 9.6 nM; in assay [5] (hapten conjugate 17-OA), 10.8 nM. Moreover, the detection range in assay [3] was in the range of 3 to 30 ng/mL.

(Values after patent EP1043336A2, “Stereospecific antibodies for imidazolinone herbicides” (The Regents of the University of California, priority 1999, dated 2000).)
